Assays:
[1] = biological target: T1, purified bovine PACAP receptor protein (Bos taurus, UniProt Q29627); assay: Competitive binding experiment for the purified PACAP receptor protein with [125I]PACAP27; settings: vs 100 pM [125I]PACAP27, FIG. 31
T1 construct: from tissue; host or cells: bovine cerebrum
T1 sequence (Q29627 38-513): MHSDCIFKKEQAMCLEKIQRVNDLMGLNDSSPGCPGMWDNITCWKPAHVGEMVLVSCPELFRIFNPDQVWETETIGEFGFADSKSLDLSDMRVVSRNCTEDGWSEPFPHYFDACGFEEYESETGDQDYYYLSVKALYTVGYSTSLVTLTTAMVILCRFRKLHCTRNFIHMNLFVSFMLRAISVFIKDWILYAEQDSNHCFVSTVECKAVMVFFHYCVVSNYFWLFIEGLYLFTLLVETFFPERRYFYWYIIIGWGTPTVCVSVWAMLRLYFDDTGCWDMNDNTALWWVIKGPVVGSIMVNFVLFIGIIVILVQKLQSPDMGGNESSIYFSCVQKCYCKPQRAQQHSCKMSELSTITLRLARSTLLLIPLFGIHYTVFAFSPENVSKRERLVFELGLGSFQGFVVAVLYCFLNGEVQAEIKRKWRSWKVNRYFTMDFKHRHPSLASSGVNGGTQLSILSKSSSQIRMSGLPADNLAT
Method: (§1) The test sample (membrane fraction or solubilized membrane protein fraction) was appropriately diluted with buffer D (20 mM Tris, 5 mM magnesium chloride, 0.1% BSA and 0.05% digitonin, pH 7.4). […] To 0.1 ml of this reaction solution, 1.5 ml of buffer E (0.1% BSA, 0.05% CHAPS, 20 mM Tris and 5 mM magnesium chloride, pH 7.4) cooled with ice was added, and immediately, the mixed solution is filtered through a glass fiber filter. […] Results of the saturation binding experiment were subjected to Scatchard plot analysis to determine the dissociation constant and the maximum binding.
Analysis results obtained by polyacrylamide electrophoresis for the final purified sample in the presence of sodium dodecylsulfate are shown in FIG. 28. […] This protein having a molecular weight of about 57,000 is the PACAP receptor protein occurring in the bovine cerebrums.

[2] = biological target: T2, Bovine PACAP receptor protein (Bos taurus, UniProt Q29627); assay: Competitive binding experiment, membrane fraction of bovine PACAP receptor cDNA (pBPR-T)-expressed CHO cells; settings: 100 pM [125I]-PACAP27, 25° C., 75 minutes, FIG. 35
T2 construct: The complete primary structure of bovine PACAP receptor protein based on pBPR-T was deduced; expressed in transfected cells; host or cells: CHO cells, pBPR-T in pRc/CMV, G-418 selected
T2 sequence (Q29627 38-513): T1 sequence (Q29627 38-513)
Method: The transformants (CHO cells) cultivated for 3 days after subculture were separated using 0.2 mM EDTA/phosphate buffer, and suspended in 10 mM sodium carbonate buffer supplemented with 1 mM EDTA, 0.5 mM phenylmethylsulfonyl fluoride (PMSA), 20 μg/ml leupeptin, 4 μg/ml E-64 and 1 μg/ml pepstatin. The suspended cells were disrupted with a Polytron homogenizer (Kinematica). The disrupted product was centrifuged with a high speed cooling centrifuge (CR26H, Roter RR18, Hitachi, Ltd.) at 3,000 rpm for 10 minutes to obtain a supernatant. The resulting supernatant was further ultracentrifuged with an ultracentrifuge (SCP70H, Roter RPZ35T, Hitachi, Ltd.) at 30,000 rpm for 60 minutes to obtain pellets. The resulting pellets were suspended in a buffer [20 mM Tris-HCl (pH 7.4), 0.25 M sucrose, 2 mM EDTa, 0.5 mM PMSF, 20 μg/ml leupeptin and 1 μg/ml pepstatin] to prepare a membrane fraction suspension.
Bound ligands were separated from free ligands through a glass fiber filter. […] The binding was examined with a a γ-ray counter. The dissociation constant and the maximum binding were examined by Scatchard plot analysis (FIG. 34).

[3] = biological target: T2, Bovine PACAP receptor protein; assay: Intracellular cyclic AMP production of bovine PACAP receptor cDNA-expressed CHO cells; type: cell-based; settings: 37° C., 30 minutes, 0.2 mM 3-isobutyl-1-methylxanthine, FIG. 36
Method: Three days after the transformants (CHO cells) were plated on a 24-well plate, the cells were washed with Hank's buffer (composition: 8 g/l NaCl, 0.4 g/l KCl, 0.06 g/l Na2HPO4, 1.0 g/l glucose, 0.2 g/l MgSO4, 0.14 g/l CaCl2 and 0.35 g/l NaHCO3) supplemented with 0.05% BSA, and treated in the presence of 0.2 mM 3-isobutyl-1-methylxanthine at 37° C. for 1 hour. […] After the cells were washed with the above-mentioned Hank's buffer supplemented with 0.05% BSA, intracellular cyclic AMP was extracted by the use of 500 μl of Hank's buffer and 100 μl of 20% perchloric acid, and neutralized with 1.5 M KOH. The amount of cyclic AMP was assayed with a cAMP oxygen immunoassay system (BIOTRAK Amersham).

[4] = biological target: T2, Bovine PACAP receptor protein; assay: Intracellular inositol phosphate of bovine PACAP receptor cDNA-expressed CHO cells; type: cell-based; settings: 37° C., 20 minutes, FIG. 37
Method: The pathway of signal transmission of inositol phosphate well known as the pathway of signal transmission together with cyclic AMP was examined. […] One hundred microliters of 20% perchloric acid was added thereto to stop the reaction, and intracellular inositol phosphate was extracted. The extract was neutralized with 1.5 M KOH. All inositol phosphate was separated from free inositol by the use of ion exchange chromatography (AGI-X8, Bio RAD). Thereafter, inositol phosphate was eluted with 1 M ammonium formate/0.1 M formic acid, and the amount of inositol phosphate was measured with a scintillation counter.

[5] = biological target: T3, human PACAP receptor protein (Homo sapiens, UniProt P41586); assay: Competitive inhibition experiment, membrane fraction of human PACAP receptor-expressed CHO-K1 cells; type: binding; settings: FIG. 47
T3 construct: expressed in transfected cells; host or cells: CHO-K1 cells (ICN), pTS849 (pRc/CMV), G-418 selected
T3 sequence (P41586 21-468): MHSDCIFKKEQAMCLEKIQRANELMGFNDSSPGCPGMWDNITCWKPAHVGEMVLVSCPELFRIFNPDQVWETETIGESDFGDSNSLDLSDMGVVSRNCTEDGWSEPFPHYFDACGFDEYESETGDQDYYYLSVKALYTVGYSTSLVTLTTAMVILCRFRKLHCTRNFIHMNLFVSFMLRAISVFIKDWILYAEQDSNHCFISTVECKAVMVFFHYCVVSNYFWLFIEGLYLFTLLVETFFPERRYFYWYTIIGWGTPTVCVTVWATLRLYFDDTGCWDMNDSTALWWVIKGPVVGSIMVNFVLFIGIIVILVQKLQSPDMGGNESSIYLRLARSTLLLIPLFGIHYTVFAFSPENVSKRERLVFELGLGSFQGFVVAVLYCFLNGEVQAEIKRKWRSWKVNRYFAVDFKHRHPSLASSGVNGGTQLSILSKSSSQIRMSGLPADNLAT
Method: as §1

[6] = biological target: T3, human PACAP receptor protein; assay: Intracellular cyclic AMP of human PACAP receptor protein-expressed CHO-K1 cells; type: cell-based; settings: 37° C., 30 minutes, 0.2 mM 3-isobutyl-1-methylxanthine, FIG. 48
Method: After washing twice with Hank's buffer containing the culture buffer, 10 mM HEPES and 0.05% BSA, the CHO-K1 cells were cultivated in the above-mentioned buffer supplemented with 0.2 mM 3-isobutyl-1-methylxanthine at 37° C. for 60 minutes. […] After absorption of the buffer, the cells were washed twice with the culture buffer. Then, cAMP was extracted from the cells with 20% perchloric acid. After transfer to a 1.5-ml Eppendorf tube, the extract was centrifuged with a Tomy microcentrifuge at 12,000 rpm for 5 minutes, and the supernatant was neutralized with 1.5 N KOH/60 mM HEPES to prepare a cell eluted solution. The concentration of cyclic AMP was determined by the acetylation method of a cAMP assay system (Amersham). Under these determination conditions, when nothing was added, the amount of intracellular CAMP was 0.7 pmole/well.

PACAP receptor = settings: unlabeled peptide, tissue membrane fraction; cited from earlier work
[7] = biological target: T4, rat PACAP receptor protein Type I-A (pRPR3-A) (Rattus norvegicus, UniProt P32215); assay: Competitive binding with [125I]-PACAP27, membrane fraction of pRPR3-A-introduced CHO cells; settings: 100 pM [125I]-PACAP27, 25° C., 1 hour, FIG. 40 (A)
T4 construct: pRPACAPR46 and pRPACAPR5 were recombined at the BamHI site to prepare pRPACAPR46-5 having a complete translation frame; expressed in transfected cells; host or cells: CHO cells, pRPR3-A (pRc/CMV); clone A12 for cAMP
T4 sequence (P32215 20-467 isoform P32215-5 limits assumed): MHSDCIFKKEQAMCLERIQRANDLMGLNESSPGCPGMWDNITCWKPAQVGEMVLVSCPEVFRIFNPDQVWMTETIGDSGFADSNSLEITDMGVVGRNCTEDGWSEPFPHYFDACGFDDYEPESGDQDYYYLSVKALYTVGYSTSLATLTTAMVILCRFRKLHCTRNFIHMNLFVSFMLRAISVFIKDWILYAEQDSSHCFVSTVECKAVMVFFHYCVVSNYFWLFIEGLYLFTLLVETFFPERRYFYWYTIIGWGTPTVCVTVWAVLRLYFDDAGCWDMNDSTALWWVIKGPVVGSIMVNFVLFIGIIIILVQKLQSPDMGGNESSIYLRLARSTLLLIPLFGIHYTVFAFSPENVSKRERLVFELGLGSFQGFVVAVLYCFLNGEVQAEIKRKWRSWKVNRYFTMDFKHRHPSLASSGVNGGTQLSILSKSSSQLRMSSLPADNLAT
Method: (§2) The pRPR3-A-introduced and pRPR4-B-introduced CHO cells obtained in (2) described above were each disrupted in sodium carbonate buffer containing 1 mM EDTA, 0.5 mM PMSF, 20 μg/ml leupeptin, 4 μg/ml E-64 and 1 μg/ml pepstatin with a Polytron homogenizer (Kinematica) to prepare membrane fractions. Using the membrane fractions, complex binding experiments were conducted. For each of the membrane fractions of the pRPR3-A-introduced CHO cells and the pRPR4-B-introduced CHO cells, each of 10 μg and 15 μg (converted to a protein amount) thereof was ligated with. […] The reaction was conducted at 25° C. for 1 hour, and bound ligands were separated from free ligands by filtration through a filter. […] The amount of bound ligands was measured with a γ-counter.

[8] = biological target: T5, rat PACAP receptor protein Type I-B (pRPR4-B) (Rattus norvegicus, UniProt P32215); assay: Competitive binding with [125I]-PACAP27, membrane fraction of pRPR4-B-introduced CHO cells; settings: 100 pM [125I]-PACAP27, 25° C., 1 hour, FIG. 40 (B)
T5 construct: two kinds of complete primary structures of rat PACAP receptor protein were deduced; expressed in transfected cells; host or cells: CHO cells, pRPR4-B (pRc/CMV); clone B17 for cAMP
T5 sequence (P32215 20-495 isoform P32215-2 limits assumed): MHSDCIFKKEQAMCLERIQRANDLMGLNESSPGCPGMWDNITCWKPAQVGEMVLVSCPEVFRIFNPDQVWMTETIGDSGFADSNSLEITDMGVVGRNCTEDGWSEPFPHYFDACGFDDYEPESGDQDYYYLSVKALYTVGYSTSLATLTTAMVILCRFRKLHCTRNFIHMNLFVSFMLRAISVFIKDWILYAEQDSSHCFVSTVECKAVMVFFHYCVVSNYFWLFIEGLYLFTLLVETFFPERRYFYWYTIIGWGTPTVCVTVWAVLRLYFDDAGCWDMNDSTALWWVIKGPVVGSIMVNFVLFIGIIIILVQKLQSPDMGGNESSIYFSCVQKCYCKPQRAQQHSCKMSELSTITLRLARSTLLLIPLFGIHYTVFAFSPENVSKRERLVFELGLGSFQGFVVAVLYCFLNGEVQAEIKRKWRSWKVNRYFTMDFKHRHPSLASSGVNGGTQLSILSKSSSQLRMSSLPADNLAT
Method: as §2

[9] = biological target: T4, rat PACAP receptor protein Type I-A (pRPR3-A); assay: Intracellular cyclic AMP of rat PACAP receptor cDNA-introduced CHO cells, strain A12; type: cell-based; settings: CHO strain A12, 37° C., 40 minutes, 0.5 mM IBMX, FIG. 43
Method: (§3) Each 48-well plate for tissue culture was inoculated with each of the cell strains. at a density of 1.0×10^5 cells/well, followed by cultivation for 3 days. The plate was washed twice with Ham's F12 medium supplemented with 0.1% BSA and 0.5 mM IBMX, and 500 μl/well of the same medium was added thereto. […] The supernatant was removed, and extraction was conducted with 100% cold ethanol. The extract was evaporated to dryness with a centrifugal freeze dryer, and redissolved in the buffer attached to an EIA kit for assaying cyclic AMP (Amersham). Then, the amount of cyclic AMP was assayed according to the formulation of the kit.

[10] = biological target: T5, rat PACAP receptor protein Type I-B (pRPR4-B); assay: Intracellular cyclic AMP of rat PACAP receptor cDNA-introduced CHO cells, strain B17; type: cell-based; settings: CHO strain B17, 37° C., 40 minutes, 0.5 mM IBMX, FIG. 43
Method: as §3

| Substance | reaction with purified PACAP receptor protein in competitive binding experiment [1] | reactivity (competition with [125I]-PACAP27) [2] | concentration of intracellular cyclic AMP [3] | concentration of inositol phosphate [4] | competition with [125I]-PACAP27 [5] | concentration of intracellular cAMP [6] | inhibition of [125I]PACAP27 binding to the membrane fraction (PACAP receptor) | competition with [125I]-PACAP27 [7] | competition with [125I]-PACAP27 [8] | production of intracellular cyclic AMP [9] | production of intracellular cyclic AMP [10] | weakness relative to PACAP27 in competitive inhibition [5] |
| --- | --- | --- | --- | --- | --- | --- | --- | --- | --- | --- | --- | --- |
| PACAP27 | reacting | high reactivity | increased depending on the concentrations | increased depending on the concentrations | competed | increased depending on the concentrations | inhibited |  |  |  |  |  |
| Vasoactive intestinal peptide [VIP] | not reacting | low in reactivity |  |  |  | little raised | not inhibited | competition was observed only at a concentration much higher than that of PACAP27 | competition was observed only at a concentration much higher than that of PACAP27 | a concentration much higher than that of the PACAPs was required | a concentration much higher than that of the PACAPs was required | 1,000 times |
| PACAP38: pituitary adenylate cyclase activating polypeptide consisting of 38 amino acid residues, SEQ ID NO: 46-NH2 |  |  |  |  |  |  | inhibited |  |  |  |  |  |

Source: US6399316B1, “PACAP receptor protein, method for preparing said protein, and use thereof” (Takeda Chemical Industries, Ltd., priority 1994, dated 2002)
